# Assay results: PMC5848165 (Toxins, 2018)
# Residues, ends and D or L forms follow the SMILES beside them.
# How the values were obtained:
# Nav1.2 = test: Whole-cell patch clamp, Nav1.2 in HEK293 cells; type: cell-based, rat; conditions: 1 µM, −10 mV from −80 mV
# Text: (§1) Nine sodium channel subtypes have been identified and classified as TTX-S (Nav1.1–Nav1.4, Nav1.6, and Nav1.7) or TTX-R types (Nav1.5, Nav1.8, and Nav1.9). […] However, the subtype selectivity of JZTX-34 on the subtype of sodium channel is still unknown. In this work, effects of JZTX-34 on VGSC subtypes (Nav1.1–Nav1.8) were examined. Nav1.1–Nav1.7 were transfected into HEK293 cells and Nav1.8 currents were expressed in ND cells. Inward sodium currents were elicited by a 50 ms depolarizing potential to −10 mV from a holding potential of −80 mV every 5 s. […] No effects on other sodium channel subtypes were found (Nav1.1, Nav1.2, Nav1.4–Nav1.6, and Nav1.8) (Figure S2). […]
# (§2) The HEK293T cells were maintained in standard culture conditions (5% CO2 and 37 °C). […] After culturing for 36–72 h, cells with obvious green fluorescence were selected for sodium currents recordings the internal solution for sodium currents recording that contained (in mM) 140 CsF, 5 NaCl, 10 HEPES, 3 Na2-ATP, and 10 EGTA. […]
# (§3) Sodium currents were recorded from DRG, HEK293, and ND cells by the whole-cell patch-clamp technique at 25 °C. […] Experiments date were acquired from whole-cell Axon 700B patch clamp amplifier (Molecular Devices, Sunnyvale, CA, USA) and analyzed by the program Clampfit10.0 (Molecular Devices, Sunnyvale, CA, USA) and Sigmaplot. […]
# Nav1.4 = test: Whole-cell patch clamp, Nav1.4 in HEK293 cells; type: cell-based, rat; conditions: 1 µM, −10 mV from −80 mV
# Text: as §1, §2, §3
structure (smiles),measurement,setting,value
"CC(C)C[C@@H]1NC(=O)[C@H](Cc2c[nH]c3ccccc23)NC(=O)[C@H](CCC(=O)O)NC(=O)[C@H](CCCNC(=N)N)NC(=O)[C@@H](NC(=O)[C@H](C)N)CSSC[C@@H]2NC(=O)[C@@H]3CSSC[C@@H](C(=O)N[C@H](C(=O)N[C@@H](Cc4c[nH]c5ccccc45)C(=O)N[C@@H](CC(=O)O)C(=O)N[C@@H](Cc4c[nH]c5ccccc45)C(=O)N[C@H](C(=O)N[C@H](C(=O)O)C(C)C)[C@@H](C)O)C(C)C)NC(=O)[C@H](Cc4c[nH]cn4)NC(=O)[C@H](Cc4ccc(O)cc4)NC(=O)[C@@H]4CCCN4C(=O)[C@H](Cc4c[nH]c5ccccc45)NC(=O)[C@H](CCCCN)NC(=O)[C@H](CCCCN)NC(=O)[C@H](CCCNC(=N)N)NC(=O)[C@H](CSSC[C@H](NC(=O)CNC(=O)CNC1=O)C(=O)N[C@@H](CO)C(=O)N[C@@H](CCCCN)C(=O)N[C@@H](CC(=O)O)C(=O)N[C@@H](C)C(=O)N[C@@H](CC(=O)O)C(=O)N3)NC(=O)[C@H](CCC(=O)O)NC(=O)[C@H](CC(C)C)NC(=O)[C@H](Cc1c[nH]cn1)NC(=O)[C@H](C)NC2=O [JZTX-34, Jingzhaotoxin-34] (HELM PEPTIDE1{A.C.R.E.W.L.G.G.C.S.K.D.A.D.C.C.A.H.L.E.C.R.K.K.W.P.Y.H.C.V.W.D.W.T.V}$PEPTIDE1,PEPTIDE1,2:R3-16:R3|PEPTIDE1,PEPTIDE1,9:R3-21:R3|PEPTIDE1,PEPTIDE1,15:R3-29:R3$$$V2.0; N-terminus and C-terminus assumed)",effect on Nav1.2 currents,Nav1.2,No effects
same,effect on Nav1.4 currents,Nav1.4,No effects
